molecular target: T1, PI3Kβ (Homo sapiens, UniProt P42338); test: In vitro enzyme activity (ADP-Glo) against PI3Kβ; format: biochemical; conditions: Table 2; ATP 10 μM, PIP2:PS 50 μM; read-out: IC50 against PI3Kβ
T1 construct: purchased sigma (US)
Protocol: (§1) In vitro enzyme activity experiments were performed to determine the IC50 values of the compounds against PI3K family type I kinases (PI3Kα, PI3Kβ, PI3Kγ, PI3Kδ) and type II kinases (PIK3C2A, PIK3C2B). Protein kinases PI3Kα, PI3Kγ, PI3Kδ, PIK3C2A, and PIK3C2B were all purchased from Invitrogen (US); protein kinase PI3Kβ was purchased from sigma (US); the three substrates PIP2: PS, PI and PI: PS were purchased from Invitrogen (US).
(§2) Protein kinases diluted to a certain concentration, i.e., PI3Kα 5.4 μL (with a final concentration of 0.16 ng/μL), PI3Kβ 5.4 μL (with a final concentration of 6 ng/μL), PI3Kδ 5.4 μL (with a final concentration of 1 ng/μL), PI3Kγ 5.4 μL (with a final concentration of 5 ng/μL), PIK3C2A 5.4 μL (with a final concentration of 5 ng/μL), and PIK3C2B 5.4 μL (with a final concentration of 10 ng/μL) were respectively reacted with 1 μL of the serially diluted drug compounds for 1 hour at room temperature (final drug concentrations were 10 μM, 1 μM, 0.3 μM, 0.1 μM, 0.03 μM, 0.01 μM, 0.003 μM, and 0.001 μM, respectively).
(§3) To each reaction tube of the above PI3K family type I kinases, 6 μL of a mixture of ATP (Promega, US) and substrate PIP2:PS (final concentrations of ATP in the reaction systems of kinases PI3Kα, and PI3Kβ were 10 μM, and final concentrations of ATP in the reaction systems of kinases PI3Kδ, and PI3Kγ were 50 μM, and final concentrations of the substrate PIP2:PS were all 50 μM) was added, and reacted at 37° C. for 1 hour. The reaction buffer was 50 mM Hepes (pH 7.5) (Promega, USA), 3 mM MgCl2, 1 mM EGTA (Promega, US), 100 mM NaCl, 0.03% CHAPS (Promega, US).
(§4) 5 μL of kinase solution after reaction was placed in a 384-well plate (Corning, US), and 5 μL of ADP-Glo™ reagent (Promega, US) was added thereto and reacted at room temperature for 40 minutes to stop the kinase reaction and exhaust the remaining ATP; 10 μL of kinase detection reagent was added to convert ADP into ATP, and coupled luciferase/luciferin reaction was utilized to detect the newly synthesized ATP. Envision was utilized for readout and plotting, and Graphpad IC50 value was calculated.

T1 sequence (P42338 whole entry): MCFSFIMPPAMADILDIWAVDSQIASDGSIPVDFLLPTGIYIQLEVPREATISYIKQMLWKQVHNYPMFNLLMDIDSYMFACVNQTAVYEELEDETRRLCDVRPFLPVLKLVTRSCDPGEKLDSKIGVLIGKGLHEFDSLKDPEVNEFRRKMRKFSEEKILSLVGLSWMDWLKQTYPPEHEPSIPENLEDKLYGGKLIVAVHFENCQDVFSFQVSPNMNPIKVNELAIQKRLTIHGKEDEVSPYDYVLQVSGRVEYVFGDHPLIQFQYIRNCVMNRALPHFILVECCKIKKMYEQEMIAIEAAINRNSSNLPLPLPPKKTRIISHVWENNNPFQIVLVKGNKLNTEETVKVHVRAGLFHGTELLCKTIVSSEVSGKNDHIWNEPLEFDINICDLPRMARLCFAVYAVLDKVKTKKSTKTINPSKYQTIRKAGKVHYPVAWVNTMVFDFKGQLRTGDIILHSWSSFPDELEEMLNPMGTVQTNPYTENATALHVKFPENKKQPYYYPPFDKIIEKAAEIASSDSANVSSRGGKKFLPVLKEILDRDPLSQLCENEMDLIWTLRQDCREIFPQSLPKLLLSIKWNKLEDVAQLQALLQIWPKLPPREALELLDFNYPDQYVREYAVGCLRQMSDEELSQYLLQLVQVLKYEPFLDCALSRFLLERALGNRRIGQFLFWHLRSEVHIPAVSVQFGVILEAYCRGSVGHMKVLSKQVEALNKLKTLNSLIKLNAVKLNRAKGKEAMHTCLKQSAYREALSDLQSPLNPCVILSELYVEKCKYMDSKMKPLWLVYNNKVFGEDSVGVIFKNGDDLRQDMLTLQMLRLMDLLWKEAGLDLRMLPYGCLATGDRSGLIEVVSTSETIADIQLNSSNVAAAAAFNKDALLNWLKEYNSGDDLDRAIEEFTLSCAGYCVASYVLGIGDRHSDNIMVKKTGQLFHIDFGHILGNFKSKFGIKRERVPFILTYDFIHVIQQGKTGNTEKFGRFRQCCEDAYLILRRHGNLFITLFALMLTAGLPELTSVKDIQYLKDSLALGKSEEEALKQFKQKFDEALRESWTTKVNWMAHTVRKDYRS
T1 sequence (P27986 whole entry partner): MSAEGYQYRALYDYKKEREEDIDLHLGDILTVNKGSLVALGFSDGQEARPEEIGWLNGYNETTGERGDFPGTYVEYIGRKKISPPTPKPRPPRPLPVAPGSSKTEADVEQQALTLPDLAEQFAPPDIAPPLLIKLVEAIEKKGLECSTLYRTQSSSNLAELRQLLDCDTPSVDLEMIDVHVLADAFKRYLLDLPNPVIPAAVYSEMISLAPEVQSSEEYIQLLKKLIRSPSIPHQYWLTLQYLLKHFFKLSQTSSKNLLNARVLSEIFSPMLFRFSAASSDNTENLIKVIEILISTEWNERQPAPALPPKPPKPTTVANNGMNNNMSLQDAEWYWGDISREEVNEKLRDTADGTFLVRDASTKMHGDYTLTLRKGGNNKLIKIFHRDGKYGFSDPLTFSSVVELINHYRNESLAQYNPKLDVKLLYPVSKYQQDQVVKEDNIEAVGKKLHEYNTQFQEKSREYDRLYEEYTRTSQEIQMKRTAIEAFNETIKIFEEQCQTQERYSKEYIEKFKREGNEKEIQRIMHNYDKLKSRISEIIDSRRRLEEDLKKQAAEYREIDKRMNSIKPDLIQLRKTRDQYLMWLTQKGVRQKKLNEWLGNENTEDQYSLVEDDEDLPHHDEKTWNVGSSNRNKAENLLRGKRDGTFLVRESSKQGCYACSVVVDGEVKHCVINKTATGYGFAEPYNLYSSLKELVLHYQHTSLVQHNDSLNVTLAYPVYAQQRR

IC50	Compound
0.122 µM	COc1ccc(-c2nn(C(C)c3nc4ccccc4c(=O)n3C3CC3)c3ncnc(N)c23)cc1F (stereo not drawn) [Compound 10, 2-(1-(4-amino-3-(3-fluoro-4-methoxyphenyl)-1H-pyrazolo [3,4-d]pyrimidin-1-yl)ethyl)-3-cyclopropylquinazolin-4(3H)-one]

same assay, conditions: Table 3; ATP 10 μM, PIP2:PS 50 μM; read-out: IC50 PIK3β

Compound	IC50
CC(C)Oc1ccc(-c2nn([C@@H](C)c3oc4ccc(F)cc4c(=O)c3-c3cccc(F)c3)c3ncnc(N)c23)cc1F [TGR1202, reference compound]	> 10 µM

molecular target: T2, PI3Kγ (Homo sapiens, UniProt P48736); test: In vitro enzyme activity (ADP-Glo) against PI3Kγ; format: biochemical; conditions: Table 2; ATP 50 μM, PIP2:PS 50 μM; read-out: IC50 against PI3Kγ
T2 construct: purchased Invitrogen (US)
Protocol: as §1, §2, §3, §4

T2 sequence (P48736 whole entry): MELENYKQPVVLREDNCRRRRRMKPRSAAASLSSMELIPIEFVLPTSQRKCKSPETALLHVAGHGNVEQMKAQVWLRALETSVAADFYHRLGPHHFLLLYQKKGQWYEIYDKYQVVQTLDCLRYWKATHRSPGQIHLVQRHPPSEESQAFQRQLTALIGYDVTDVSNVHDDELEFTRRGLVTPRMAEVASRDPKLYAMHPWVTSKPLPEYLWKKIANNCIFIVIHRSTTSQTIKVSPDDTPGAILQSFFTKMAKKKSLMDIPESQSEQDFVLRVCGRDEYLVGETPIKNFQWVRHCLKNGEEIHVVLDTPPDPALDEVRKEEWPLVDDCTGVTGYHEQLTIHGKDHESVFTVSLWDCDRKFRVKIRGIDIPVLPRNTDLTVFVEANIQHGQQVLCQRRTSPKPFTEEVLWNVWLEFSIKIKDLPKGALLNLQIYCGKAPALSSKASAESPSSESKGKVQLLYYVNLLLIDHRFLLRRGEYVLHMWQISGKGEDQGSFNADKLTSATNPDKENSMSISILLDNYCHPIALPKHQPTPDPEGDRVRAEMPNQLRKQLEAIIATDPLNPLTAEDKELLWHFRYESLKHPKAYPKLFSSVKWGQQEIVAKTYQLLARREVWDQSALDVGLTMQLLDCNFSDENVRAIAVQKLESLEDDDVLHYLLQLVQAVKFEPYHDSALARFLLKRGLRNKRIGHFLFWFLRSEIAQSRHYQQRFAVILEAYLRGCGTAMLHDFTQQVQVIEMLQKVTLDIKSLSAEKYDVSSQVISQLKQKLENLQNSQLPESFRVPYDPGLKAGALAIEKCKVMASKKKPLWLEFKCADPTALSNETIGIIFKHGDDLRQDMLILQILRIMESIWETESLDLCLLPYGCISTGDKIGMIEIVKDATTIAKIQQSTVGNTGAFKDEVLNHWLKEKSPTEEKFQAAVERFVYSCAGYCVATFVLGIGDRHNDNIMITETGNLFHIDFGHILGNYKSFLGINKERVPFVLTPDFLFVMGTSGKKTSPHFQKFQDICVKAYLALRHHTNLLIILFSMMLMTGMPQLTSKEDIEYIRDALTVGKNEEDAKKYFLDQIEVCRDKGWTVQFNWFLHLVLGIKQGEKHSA

IC50	Compound
0.103 µM	COc1ccc(-c2nn(C(C)c3nc4ccccc4c(=O)n3C3CC3)c3ncnc(N)c23)cc1F (stereo not drawn) [Compound 10, 2-(1-(4-amino-3-(3-fluoro-4-methoxyphenyl)-1H-pyrazolo [3,4-d]pyrimidin-1-yl)ethyl)-3-cyclopropylquinazolin-4(3H)-one]

same assay, conditions: Table 3; ATP 50 μM, PIP2:PS 50 μM; read-out: IC50 PIK3γ

Compound	IC50
CC(C)Oc1ccc(-c2nn([C@@H](C)c3oc4ccc(F)cc4c(=O)c3-c3cccc(F)c3)c3ncnc(N)c23)cc1F [TGR1202, reference compound]	0.362 µM

molecular target: T3, PI3Kδ (Homo sapiens, UniProt O00329); test: In vitro enzyme activity (ADP-Glo) against PI3Kδ; format: biochemical; conditions: Table 2; ATP 50 μM, PIP2:PS 50 μM
T3 construct: purchased Invitrogen (US)
Protocol: as §1, §2, §3, §4

T3 sequence (O00329 whole entry): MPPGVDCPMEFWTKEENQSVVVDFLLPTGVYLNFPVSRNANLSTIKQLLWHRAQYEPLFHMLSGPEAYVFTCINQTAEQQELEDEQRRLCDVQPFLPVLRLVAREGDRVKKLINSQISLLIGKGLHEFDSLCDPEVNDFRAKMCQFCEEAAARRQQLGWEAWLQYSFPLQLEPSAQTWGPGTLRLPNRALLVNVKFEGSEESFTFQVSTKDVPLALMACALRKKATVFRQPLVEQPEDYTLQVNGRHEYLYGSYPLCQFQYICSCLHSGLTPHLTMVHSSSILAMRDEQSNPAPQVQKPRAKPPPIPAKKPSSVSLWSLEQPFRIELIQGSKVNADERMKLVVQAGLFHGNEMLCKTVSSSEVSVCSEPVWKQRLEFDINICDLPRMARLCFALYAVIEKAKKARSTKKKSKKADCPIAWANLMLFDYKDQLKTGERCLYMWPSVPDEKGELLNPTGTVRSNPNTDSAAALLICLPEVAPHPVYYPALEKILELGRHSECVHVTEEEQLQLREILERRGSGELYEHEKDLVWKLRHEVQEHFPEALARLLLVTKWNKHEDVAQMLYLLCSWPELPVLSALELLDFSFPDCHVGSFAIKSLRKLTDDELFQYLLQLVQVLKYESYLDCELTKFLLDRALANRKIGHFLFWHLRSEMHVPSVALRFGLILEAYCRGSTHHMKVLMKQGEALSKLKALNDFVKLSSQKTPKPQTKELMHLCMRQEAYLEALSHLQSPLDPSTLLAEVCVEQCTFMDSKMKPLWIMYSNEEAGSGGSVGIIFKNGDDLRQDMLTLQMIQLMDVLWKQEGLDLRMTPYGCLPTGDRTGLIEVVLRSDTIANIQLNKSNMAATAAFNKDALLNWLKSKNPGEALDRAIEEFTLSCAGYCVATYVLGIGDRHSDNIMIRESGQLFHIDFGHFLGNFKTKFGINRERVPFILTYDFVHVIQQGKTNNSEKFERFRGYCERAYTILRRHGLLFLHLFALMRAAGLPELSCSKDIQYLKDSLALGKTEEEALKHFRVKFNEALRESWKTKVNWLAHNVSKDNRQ
T3 sequence (P27986 whole entry partner): as the sequence (P27986 whole entry partner) above

Compound	IC50
COc1ccc(-c2nn(Cc3nc4cccc(F)c4c(=O)n3C3CCC3)c3ncnc(N)c23)cc1F [Compound 7, 2-((4-amino-3-(3-fluoro-4-methoxyphenyl)-1H-pyrazolo [3,4-d]pyrimidin-1-yl)methyl)-3-cyclobutyl-5-fluoroquinazolin-4(3H)-one]	0.0999 µM
COc1ccc(-c2nn(C(C)c3nc4ccccc4c(=O)n3C3CC3)c3ncnc(N)c23)cc1F (stereo not drawn) [Compound 10, 2-(1-(4-amino-3-(3-fluoro-4-methoxyphenyl)-1H-pyrazolo [3,4-d]pyrimidin-1-yl)ethyl)-3-cyclopropylquinazolin-4(3H)-one]	0.0064 µM
CC(c1nc2cccc(F)c2c(=O)n1C1CCCC1)n1nc(-c2cccc(F)c2)c2c(N)ncnc21 (stereo not drawn) [Compound 12, 2-(1-(4-amino-3-(3-fluorophenyl)-1H-pyrazolo [3,4-d]pyrimidin-1-yl)ethyl)-3-cyclopentyl-5-fluoroquinazolin-4(3H)-one]	0.082 µM
CC(C)c1ccc(-c2nn(C(C)c3nc4cccc(F)c4c(=O)n3C3CCCC3)c3ncnc(N)c23)cc1 (stereo not drawn) [Compound 24, 2-(1-(4-amino-3-(4-isopropylphenyl)-1H-pyrazolo [3,4-d]pyrimidin-1-yl)ethyl)-3-cyclopentyl-5-fluoroquinazolin-4(3H)-one]	0.0215 µM
Cc1ccc(-c2nn(C(C)c3nc4cccc(F)c4c(=O)n3C3CCCC3)c3ncnc(N)c23)cc1F (stereo not drawn) [Compound 25, 2-(1-(4-amino-3-(3-fluoro-4-methylphenyl)-1H-pyrazolo [3,4-d]pyrimidin-1-yl)ethyl)-3-cyclopentyl-5-fluoroquinazolin-4(3H)-one]	0.0175 µM
CC(c1nc2cccc(F)c2c(=O)n1C1CCCC1)n1nc(-c2cnc3ccccc3c2)c2c(N)ncnc21 (stereo not drawn) [Compound 26, 2-(1-(4-amino-3-(quinolin-3-yl)-1H-pyrazolo [3,4-d]pyrimidin-1-yl)ethyl)-3-cyclopentyl-5-fluoroquinazolin-4(3H)-one]	0.0557 µM
CC(C)c1ccc(-c2nn(C(C)c3nc4cccc(F)c4c(=O)n3C3CCC3)c3ncnc(N)c23)cc1 (stereo not drawn) [Compound 28, 2-(1-(4-amino-3-(4-isopropylphenyl)-1H-pyrazolo [3,4-d]pyrimidin-1-yl)ethyl)-3-cyclobutyl-5-fluoroquinazolin-4(3H)-one]	0.0833 µM
COc1ccc(-c2nn(C(C)c3nc4c(Cl)cccc4c(=O)n3C3CCC3)c3ncnc(N)c23)cc1F (stereo not drawn) [Compound 29, 2-(1-(4-amino-3-(3-fluoro-4-methoxyphenyl)-1H-pyrazolo [3,4-d]pyrimidin-1-yl)ethyl)-8-chloro-3-cyclobutylquinazolin-4(3H)-one]	0.0773 µM
COc1ccc(-c2nn(C(C)c3nc4cccc(F)c4c(=O)n3C3CCC3)c3ncnc(N)c23)cc1C (stereo not drawn) [Compound 34, 2-(1-(4-amino-3-(4-methoxy-3-methylphenyl)-1H-pyrazolo [3,4-d]pyrimidin-1-yl)ethyl)-3-cyclobutyl-5-fluoroquinazolin-4(3H)-one]	0.0418 µM
CC(c1nc2cccc(F)c2c(=O)n1C1CCC1)n1nc(-c2ccc3c(c2)OCO3)c2c(N)ncnc21 (stereo not drawn) [Compound 35, 2-(1-(4-amino-3-(benzo[d][1,3]dioxol-5-yl)-1H-pyrazolo [3,4-d]pyrimidin-1-yl)ethyl)-3-cyclobutyl-5-fluoroquinazolin-4(3H)-one]	0.0262 µM

Now from value to molecule:

IC50	Compound
0.0162 µM	COc1ccc(-c2nn(C(C)c3nc4cccc(F)c4c(=O)n3C3CCCC3)c3ncnc(N)c23)cc1C (stereo not drawn) [Compound 36, 2-(1-(4-amino-3-(4-methoxy-3-methylphenyl)-1H-pyrazolo [3,4-d]pyrimidin-1-yl)ethyl)-3-cyclopentyl-5-fluoroquinazolin-4(3H)-one]
0.0235 µM	COc1ccc(-c2nn(C(C)c3nc4ccccc4c(=O)n3C3CCC3)c3ncnc(N)c23)cc1C (stereo not drawn) [Compound 39, 2-(1-(4-amino-3-(4-methoxy-3-methylphenyl)-1H-pyrazolo [3,4-d]pyrimidin-1-yl)ethyl)-3-cyclobutylquinazolin-4(3H)-one]
0.0289 µM	CCC(c1nc2cccc(F)c2c(=O)n1C1CC1)n1nc(-c2ccc(OC)cc2)c2c(N)ncnc21 (stereo not drawn) [Compound 40, 2-(1-(4-amino-3-(4-methoxyphenyl)-1H-pyrazolo [3,4-d]pyrimidin-1-yl)propyl)-3-cyclopropyl-5-fluoroquinazolin-4(3H)-one]
0.0273 µM	Cc1ccc(-c2nn(C(C)c3nc4ccc(F)cc4c(=O)n3C3CC3)c3ncnc(N)c23)cc1F (stereo not drawn) [Compound 43, 2-(1-(4-amino-3-(3-fluoro-4-methylphenyl)-1H-pyrazolo [3,4-d]pyrimidin-1-yl)ethyl)-3-cyclopropyl-6-fluoroquinazolin-4-(3H)-one]
0.0398 µM	COc1ccc(-c2nn(C(C)c3nc4ccccc4c(=O)n3C3CC3)c3ncnc(N)c23)cc1C (stereo not drawn) [Compound 44, 2-(1-(4-amino-3-(4-methoxy-3-methylphenyl)-1H-pyrazolo [3,4-d]pyrimidin-1-yl)ethyl)-3-cyclopropylquinazolin-4(3H)-one]
0.0272 µM	COc1ccc(-c2nn(C(C)c3nc4ccccc4c(=O)n3C3CC3)c3ncnc(N)c23)cc1 (stereo not drawn) [Compound 45, 2-(1-(4-amino-3-(4-methoxyphenyl)-1H-pyrazolo [3,4-d]pyrimidin-1-yl)ethyl)-3-cyclopropylquinazolin-4(3H)-one]
0.0347 µM	CC(c1nc2cccc(F)c2c(=O)n1C1CCCC1)n1nc(-c2ccc3c(c2)OCO3)c2c(N)ncnc21 (stereo not drawn) [Compound 46, 2-(1-(4-amino-3-(benzo[d][1,3]dioxol-5-yl)-1H-pyrazolo [3,4-d]pyrimidin-1-yl)ethyl)-3-cyclopentyl-5-fluoroquinazolin-4(3H)-one]
0.0321 µM	CCC(c1nc2cccc(F)c2c(=O)n1C1CC1)n1nc(-c2ccc(OC)c(OC)c2)c2c(N)ncnc21 (stereo not drawn) [Compound 47, 2-(1-(4-amino-3-(3,4-dimethoxyphenyl)-1H-pyrazolo [3,4-d]pyrimidin-1-yl)propyl)-3-cyclopropyl-5-fluoroquinazolin-4(3H)-one]
0.0485 µM	CCC(c1nc2cccc(F)c2c(=O)n1C1CC1)n1nc(-c2ccc(OC)nc2)c2c(N)ncnc21 (stereo not drawn) [Compound 50, 2-(1-(4-amino-3-(6-methoxypyridin-3-yl)-1H-pyrazolo [3,4-d]pyrimidin-1-yl)propyl)-3-cyclopropyl-5-fluoroquinazolin-4(3H)-one]
0.0438 µM	CC(=O)Nc1ccc(-c2nn(C(C)c3nc4cccc(F)c4c(=O)n3C3CCC3)c3ncnc(N)c23)cc1 (stereo not drawn) [Compound 53, N-(4-(4-amino-1-(1-(3-cyclobutyl-5-fluoro-4-oxo-3,4-dihydroquinazolin-2-yl)ethyl)-1H-pyrazolo[3,4-d]pyrimidin-3-yl)phenyl)acetamide]
0.039 µM	COc1ccc(-c2nn(C(C)c3nc4cccc(F)c4c(=O)n3C3CCC3)c3ncnc(N)c23)cn1 (stereo not drawn) [Compound 54, 2-(1-(4-amino-3-(6-methoxypyridin-3-yl)-1H-pyrazolo [3,4-d]pyrimidin-1-yl)ethyl)-3-cyclobutyl-5-fluoroquinazolin-4(3H)-one]
0.0567 µM	CCC(c1nc2cc(F)c(F)cc2c(=O)n1C1CC1)n1nc(-c2ccc(OC)c(F)c2)c2c(N)ncnc21 (stereo not drawn) [Compound 56, 2-(1-(4-amino-3-(3-fluoro-4-methoxyphenyl)-1H-pyrazolo [3,4-d]pyrimidin-1-yl)propyl)-3-cyclopropyl-6,7-difluoroquinazolin-4(3H)-one]
0.0367 µM	CC[C@H](c1nc2cccc(F)c2c(=O)n1C1CC1)n1nc(-c2ccc(OC)c(F)c2)c2c(N)ncnc21 [Compound 82, 2-((R)-1-(4-amino-3-(3-fluoro-4-methoxyphenyl)-1H-pyrazolo [3,4-d]pyrimidin-1-yl)propyl)-3-cyclopropyl-5-fluoroquinazolin-4(3H)-one]

From patent publication US12221448B2, “Selective PI3Kδ inhibitor and use thereof” (TARAPEUTICS SCIENCE INC., priority 2018, dated 2025)
